Measured values: patent US5599548A, “Skin care compositions containing fatty acid amides and retinol or retinyl ester” (priority 1995, dated 1997)
Entries after “also recorded” stand apart in the source; their conditions may differ. Read-outs that look alike come from different tables or passages of the source.

Key:
Human keratinocytes = test: 3H-Thymidine incorporation (keratinocyte proliferation); assay type: cell-based; settings: for activity at 0.001 µM / activity at 0.01 µM / activity at 1 µM / activity at 0.1 µM: Homo sapiens, Keratinocyte, 24 h; for activity at 1 µM: 10^-6 M; for activity at 0.1 µM: 10^-7 M
Method in brief: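 Neonatal foreskin keratinocytes (second passage, serum-free medium) were plated at 40,000 cells/well and grown to 60–70% confluence. Compounds were added in triplicate 24 h after a medium change, with 1 μCi 3H-thymidine 4 h later, followed by a further 24 h incubation. TCA-precipitated label was counted by liquid scintillation and expressed as DPM/μg protein.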

[1] = system: TGase I (keratinocyte transglutaminase level); test: Transglutaminase (TGase I) ELISA assay (keratinocyte differentiation); assay type: cell-based, human
Method in brief: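 Neonatal foreskin keratinocytes plated at 3,000 cells/well, treated with compounds after 4 days for 72 h, then freeze-fractured. TGase I measured by ELISA (mouse anti-human TGase primary, peroxidase anti-mouse secondary, o-phenylene diamine substrate, A492). Secondary-only background was subtracted; values are means ±s.d. of replicates.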

[2] = Table 7A, n = 9, read-out: mean Thymidine incorp/μg protein ± s.d
[3] = Table 7A, n = 9, read-out: thymidine incorporation, % control

## CCCCC/C=C\C/C=C\CCCCCCCC(=O)N(CCO)CCO [linoleoyl-DEA, Linoleoyl-Diethanolamide]
Human keratinocytes; Table 2A, RA, ROH 2.5 × 10^-8 M, linoleoyl-DEA 10^-9 M, alone or combined, n = 9, read-out: thymidine incorporation, % control
  activity at 0.001 µM: 105%
Human keratinocytes; Table 2A, RA, ROH 2.5 × 10^-8 M, linoleoyl-DEA 10^-9 M, alone or combined, normalized to ethanol control, n = 9, read-out: mean Thymidine incorp./μg protein ± s.d
  activity at 0.001 µM: 105 ± 15.8%
Human keratinocytes; Table 3A, RA 2.5 × 10^-9 M, RP 2.5 × 10^-7 M, linoleoyl-DEA 10^-8 M, alone or combined, n = 3, read-out: thymidine incorporation, % control
  activity at 0.01 µM: 99%
Human keratinocytes; [2]
  activity at 1 µM: 60.7 ± 8%
  activity at 0.1 µM: 101 ± 7.5%
Human keratinocytes; [3]
  activity at 1 µM: 61%
  activity at 0.1 µM: 101%
Human keratinocytes; Table 7A, 10^-8 M, n = 9, read-out: mean Thymidine incorp/μg protein ± s.d
  activity at 0.01 µM: 114 ± 20.6%
Human keratinocytes; Table 7A, 10^-8 M, n = 9, read-out: thymidine incorporation, % control
  activity at 0.01 µM: 114%
Human keratinocytes; Table 7A, 10^-9 M, n = 9, read-out: mean Thymidine incorp/μg protein ± s.d
  activity at 0.001 µM: 105 ± 15.8%
Human keratinocytes; Table 7A, 10^-9 M, n = 9, read-out: thymidine incorporation, % control
  activity at 0.001 µM: 105%
Human keratinocytes; Table 3A, RA 2.5 × 10^-9 M, RP 2.5 × 10^-7 M, linoleoyl-DEA 10^-8 M, alone or combined, n = 3
  mean Thymidine incorp./μg protein ± s.d: 1692 ± 48 DPM/μg protein
Human keratinocytes; concentrations as in the respective Example
  effect on keratinocyte proliferation, in words: minor, non-significant stimulatory effect on keratinocyte proliferation; also recorded: no effect on keratinocyte proliferation
[1]; Homo sapiens, Keratinocyte, 72 h, Table 2B, RA, ROH 2.5 × 10^-7 M, linoleoyl-DEA 10^-6 M, alone or combined, 72 h, n = 9, read-out: TGase (TG1) level, % control
  activity at 1 µM: 59%
[1]; Homo sapiens, Keratinocyte, Table 3B, RA, RP 2.5 × 10^-7 M, linoleoyl-DEA 10^-6 M, alone or combined, n = 3, read-out: TGase (TG1) level, % control
  activity at 1 µM: 85%
[1]; Homo sapiens, Keratinocyte, Table 8A, 10^-6 M, n = 3, read-out: TGase, % control
  activity at 1 µM: 87%
[1]; Homo sapiens, Keratinocyte, Table 8A, 10^-7 M, n = 3, read-out: TGase, % control
  activity at 0.1 µM: 80%
[1]; Homo sapiens, Keratinocyte, Table 8A, 10^-8 M, n = 3, read-out: TGase, % control
  activity at 0.01 µM: 86%
[1]; Homo sapiens, Keratinocyte, Table 8A, 10^-9 M, n = 3, read-out: TGase, % control
  activity at 0.001 µM: 85%
[1]; Homo sapiens, Keratinocyte, Table 8B, 10^-6 M, n = 3, read-out: TGase, % control
  activity at 1 µM: 37%
[1]; Homo sapiens, Keratinocyte, Table 8B, 10^-10 M, n = 3, read-out: TGase, % control
  activity at 0.0001 µM: 66%
[1]; Table 2B, RA, ROH 2.5 × 10^-7 M, linoleoyl-DEA 10^-6 M, alone or combined, 72 h, normalized to ethanol control, n = 9
  mean TGase ± s.d: 0.594 ± 0.773
[1]; Table 3B, RA, RP 2.5 × 10^-7 M, linoleoyl-DEA 10^-6 M, alone or combined, n = 3
  mean TGase ± s.d: 0.186 ± 0.058
[1]; Table 8A, 10^-6 M, n = 3
  mean TGase ± s.d: 0.186 ± 0.058
[1]; Table 8A, 10^-7 M, n = 3
  mean TGase ± s.d: 0.175 ± 0.059
[1]; Table 8A, 10^-8 M, n = 3
  mean TGase ± s.d: 0.188 ± 0.046
[1]; Table 8A, 10^-9 M, n = 3
  mean TGase ± s.d: 0.185 ± 0.031
[1]; Table 8B, 10^-6 M, n = 3
  mean TGase ± s.d: 0.037 ± 0.008
[1]; Table 8B, 10^-10 M, n = 3
  mean TGase ± s.d: 0.080 ± 0.030
